Assay results as given in ChEMBL document CHEMBL1201861, “Genomics of Drug Sensitity in Cancer screening data, Wellcome Trust Sanger Institute”.

Experiments:
Experiment in all cases: cells
Conditions in all cases: Homo sapiens
MG-63 = type: functional, cell-based
Description: SANGER: Inhibition of human MG-63 cell growth in a cell viability assay.

Daoy = type: functional, cell-based
Description: SANGER: Inhibition of human Daoy cell growth in a cell viability assay.

PC-3 = type: functional, cell-based
Description: SANGER: Inhibition of human PC-3 cell growth in a cell viability assay.

S-117 = type: functional, cell-based
Description: SANGER: Inhibition of human S-117 cell growth in a cell viability assay.

SK-MES-1 = type: functional, cell-based
Description: SANGER: Inhibition of human SK-MES-1 cell growth in a cell viability assay.

SK-LU-1 = type: functional, cell-based
Description: SANGER: Inhibition of human SK-LU-1 cell growth in a cell viability assay.

UACC-62 = type: functional, cell-based
Description: SANGER: Inhibition of human UACC-62 cell growth in a cell viability assay.

RPMI-2650 = type: functional, cell-based
Description: SANGER: Inhibition of human RPMI-2650 cell growth in a cell viability assay.

KYSE-70 cell line = type: functional, cell-based
Description: SANGER: Inhibition of human KYSE-70 cell growth in a cell viability assay.

COLO-741 = type: functional, cell-based
Description: SANGER: Inhibition of human COLO-741 cell growth in a cell viability assay.

ASPC1 = type: functional, cell-based
Description: SANGER: Inhibition of human AsPC-1 cell growth in a cell viability assay.

P12-Ichikawa = type: functional, cell-based
TCC-SUP = type: functional, cell-based
Description: SANGER: Inhibition of human TCCSUP cell growth in a cell viability assay.

HEC-1 = type: functional, cell-based
Description: SANGER: Inhibition of human HEC-1 cell growth in a cell viability assay.

OVCAR-3 = type: functional, cell-based
Description: SANGER: Inhibition of human OVCAR-3 cell growth in a cell viability assay.

MDA-MB-231 = type: functional, cell-based
Description: SANGER: Inhibition of human MDA-MB-231 cell growth in a cell viability assay.

MCF7 = type: functional, cell-based
Description: SANGER: Inhibition of human MCF7 cell growth in a cell viability assay.

DK-MG = type: functional, cell-based
Description: SANGER: Inhibition of human DK-MG cell growth in a cell viability assay.

SW756 = type: functional, cell-based
Description: SANGER: Inhibition of human SW756 cell growth in a cell viability assay.

C32 = type: functional, cell-based
Description: SANGER: Inhibition of human C32 cell growth in a cell viability assay.

UO-31 = type: functional, cell-based
Description: SANGER: Inhibition of human U031 cell growth in a cell viability assay.

LCLC-103H cell line = type: functional, cell-based
Description: SANGER: Inhibition of human LCLC-103H cell growth in a cell viability assay.

MDA-MB-157 = type: functional, cell-based
Description: SANGER: Inhibition of human MDA-MB-157 cell growth in a cell viability assay.

G-402 = type: functional, cell-based
Description: SANGER: Inhibition of human G-402 cell growth in a cell viability assay.

RT-112 = type: functional, cell-based
Description: SANGER: Inhibition of human RT-112 cell growth in a cell viability assay.

M14 = type: functional, cell-based
Description: SANGER: Inhibition of human M14 cell growth in a cell viability assay.

MDA-MB-175-VII = type: functional, cell-based
SW1573 = type: functional, cell-based
Description: SANGER: Inhibition of human SW1573 cell growth in a cell viability assay.

NCI-H522 = type: functional, cell-based
Description: SANGER: Inhibition of human NCI-H522 cell growth in a cell viability assay.

HCC38 = type: functional, cell-based
Description: SANGER: Inhibition of human HCC38 cell growth in a cell viability assay.

KYSE-520 cell line = type: functional, cell-based
Description: SANGER: Inhibition of human KYSE-520 cell growth in a cell viability assay.

CAKI-1 = type: functional, cell-based
Description: SANGER: Inhibition of human CAKI-1 cell growth in a cell viability assay.

SAOS-2 = type: functional, cell-based
Description: SANGER: Inhibition of human Saos-2 cell growth in a cell viability assay.

MIA PaCa-2 = type: functional, cell-based
Description: SANGER: Inhibition of human MIA-PaCa-2 cell growth in a cell viability assay.

NCI-H441 = type: functional, cell-based
Description: SANGER: Inhibition of human NCI-H441 cell growth in a cell viability assay.

HCC70 = type: functional, cell-based
Description: SANGER: Inhibition of human HCC70 cell growth in a cell viability assay.

MKN-45 = type: functional, cell-based
Description: SANGER: Inhibition of human MKN45 cell growth in a cell viability assay.

CHP-212 = type: functional, cell-based
Description: SANGER: Inhibition of human CHP-212 cell growth in a cell viability assay.

RVH-421 = type: functional, cell-based
Description: SANGER: Inhibition of human RVH-421 cell growth in a cell viability assay.

NB7 = type: functional, cell-based
Description: SANGER: Inhibition of human NB7 cell growth in a cell viability assay.

NCI-H810 = type: functional, cell-based
Description: SANGER: Inhibition of human NCI-H810 cell growth in a cell viability assay.

HuCCT-1 = type: functional, cell-based, HuCCT1
Description: SANGER: Inhibition of human HuCCT1 cell growth in a cell viability assay.

MC-IXC = type: functional, cell-based
Description: SANGER: Inhibition of human MC-IXC cell growth in a cell viability assay.

AN3-CA = type: functional, cell-based
Description: SANGER: Inhibition of human AN3-CA cell growth in a cell viability assay.

A204 = type: functional, cell-based
Description: SANGER: Inhibition of human A204 cell growth in a cell viability assay.

CAMA-1 = type: functional, cell-based
Description: SANGER: Inhibition of human CAMA-1 cell growth in a cell viability assay.

PFSK-1 = type: functional, cell-based
Description: SANGER: Inhibition of human PFSK-1 cell growth in a cell viability assay.

CAL-85-1 = type: functional, cell-based
Description: SANGER: Inhibition of human CAL-85-1 cell growth in a cell viability assay.

OAW-28 = type: functional, cell-based
Description: SANGER: Inhibition of human OAW-28 cell growth in a cell viability assay.

NCI-H2122 = type: functional, cell-based
Description: SANGER: Inhibition of human NCI-H2122 cell growth in a cell viability assay.

OVCAR-8 = type: functional, cell-based
Description: SANGER: Inhibition of human OVCAR-8 cell growth in a cell viability assay.

KP-N-YN = type: functional, cell-based
Description: SANGER: Inhibition of human KP-N-YN cell growth in a cell viability assay.

## O=c1cc(N2CCOCC2)oc2c(-c3cccc4c3sc3ccccc34)cccc12
MG-63
  IC50: > 2 µM
Daoy
  IC50: > 2 µM
PC-3
  IC50: > 2 µM
S-117
  IC50: > 2 µM
SK-MES-1
  IC50: > 2 µM
SK-LU-1
  IC50: > 2 µM
UACC-62
  IC50: > 2 µM
RPMI-2650
  IC50: > 2 µM
KYSE-70 cell line
  IC50: > 2 µM
COLO-741
  IC50: > 2 µM
ASPC1
  IC50: > 2 µM
P12-Ichikawa
  IC50: > 2 µM
TCC-SUP
  IC50: > 2 µM
HEC-1
  IC50: > 2 µM
OVCAR-3
  IC50: > 2 µM
MDA-MB-231
  IC50: > 2 µM
MCF7
  IC50: > 2 µM
DK-MG
  IC50: > 2 µM
SW756
  IC50: > 2 µM
C32
  IC50: > 2 µM
UO-31
  IC50: > 2 µM
LCLC-103H cell line
  IC50: > 2 µM
MDA-MB-157
  IC50: > 2 µM
G-402
  IC50: > 2 µM
RT-112
  IC50: > 2 µM
M14
  IC50: > 2 µM
MDA-MB-175-VII
  IC50: > 2 µM
SW1573
  IC50: > 2 µM
NCI-H522
  IC50: > 2 µM
HCC38
  IC50: > 2 µM
KYSE-520 cell line
  IC50: > 2 µM
CAKI-1
  IC50: > 2 µM
SAOS-2
  IC50: > 2 µM
MIA PaCa-2
  IC50: > 2 µM
NCI-H441
  IC50: > 2 µM
HCC70
  IC50: > 2 µM
MKN-45
  IC50: > 2 µM
CHP-212
  IC50: > 2 µM
RVH-421
  IC50: > 2 µM
NB7
  IC50: 1.25 µM
NCI-H810
  IC50: > 2 µM
HuCCT-1
  IC50: > 2 µM
MC-IXC
  IC50: > 2 µM
AN3-CA
  IC50: > 2 µM
A204
  IC50: > 2 µM
CAMA-1
  IC50: > 2 µM
PFSK-1
  IC50: > 2 µM
CAL-85-1
  IC50: > 2 µM
OAW-28
  IC50: > 2 µM
NCI-H2122
  IC50: > 2 µM
OVCAR-8
  IC50: > 2 µM
KP-N-YN
  IC50: > 2 µM

## Cn1c(=O)n(-c2ccc(C(C)(C)C#N)cc2)c2c3cc(-c4cnc5ccccc5c4)ccc3ncc21 [DACTOLISIB]
MG-63
  IC50: 0.0234 µM
Daoy
  IC50: 0.0367 µM
PC-3
  IC50: 0.00509 µM
S-117
  IC50: 0.0763 µM
SK-MES-1
  IC50: 0.0533 µM
SK-LU-1
  IC50: 0.0262 µM
UACC-62
  IC50: 0.168 µM
RPMI-2650
  IC50: 0.0527 µM
KYSE-70 cell line
  IC50: 0.152 µM
COLO-741
  IC50: 1.5 µM
ASPC1
  IC50: 0.0302 µM
P12-Ichikawa
  IC50: 0.0151 µM
TCC-SUP
  IC50: 0.0645 µM
HEC-1
  IC50: 0.0675 µM
OVCAR-3
  IC50: 0.599 µM
MDA-MB-231
  IC50: 0.105 µM
MCF7
  IC50: 0.0486 µM
DK-MG
  IC50: 0.18 µM
SW756
  IC50: 0.555 µM
C32
  IC50: 0.0538 µM
UO-31
  IC50: 0.0967 µM
LCLC-103H cell line
  IC50: 0.286 µM
MDA-MB-157
  IC50: 0.0354 µM
G-402
  IC50: 0.0222 µM
RT-112
  IC50: 0.0197 µM
M14
  IC50: 0.06 µM
MDA-MB-175-VII
  IC50: 0.0395 µM
SW1573
  IC50: 0.109 µM
NCI-H522
  IC50: 0.248 µM
HCC38
  IC50: 0.266 µM
KYSE-520 cell line
  IC50: 0.253 µM
CAKI-1
  IC50: 0.0364 µM
SAOS-2
  IC50: 0.179 µM
MIA PaCa-2
  IC50: 0.0845 µM
NCI-H441
  IC50: 0.895 µM
HCC70
  IC50: 0.409 µM
CHP-212
  IC50: 0.0749 µM
RVH-421
  IC50: 0.0537 µM
NB7
  IC50: 0.19 µM
NCI-H810
  IC50: 0.278 µM
HuCCT-1
  IC50: 0.0908 µM
MC-IXC
  IC50: 0.0701 µM
AN3-CA
  IC50: 0.00556 µM
A204
  IC50: 0.0285 µM
CAMA-1
  IC50: 0.0098 µM
PFSK-1
  IC50: 0.0491 µM
CAL-85-1
  IC50: 0.0925 µM
OAW-28
  IC50: > 2 µM
NCI-H2122
  IC50: 0.201 µM
OVCAR-8
  IC50: 0.0313 µM
KP-N-YN
  IC50: > 2 µM

## CC(=O)c1c(C)c2cnc(Nc3ccc(N4CCNCC4)cn3)nc2n(C2CCCC2)c1=O [PALBOCICLIB]
MG-63
  IC50: 1.62 µM
Daoy
  IC50: > 4 µM
PC-3
  IC50: 1.35 µM
S-117
  IC50: > 4 µM
SK-MES-1
  IC50: 2.62 µM
SK-LU-1
  IC50: 1.62 µM
UACC-62
  IC50: > 4 µM
RPMI-2650
  IC50: > 4 µM
KYSE-70 cell line
  IC50: > 4 µM
COLO-741
  IC50: 1.32 µM
ASPC1
  IC50: 0.253 µM
P12-Ichikawa
  IC50: 0.096 µM
TCC-SUP
  IC50: > 4 µM
HEC-1
  IC50: > 4 µM
OVCAR-3
  IC50: > 4 µM
MDA-MB-231
  IC50: 3.82 µM
MCF7
  IC50: 2.71 µM
DK-MG
  IC50: > 4 µM
SW756
  IC50: > 4 µM
C32
  IC50: > 4 µM
LCLC-103H cell line
  IC50: > 4 µM
MDA-MB-157
  IC50: > 4 µM
G-402
  IC50: > 4 µM
RT-112
  IC50: 0.321 µM
M14
  IC50: > 4 µM
MDA-MB-175-VII
  IC50: > 4 µM
SW1573
  IC50: > 4 µM
NCI-H522
  IC50: > 4 µM
HCC38
  IC50: > 4 µM
KYSE-520 cell line
  IC50: > 4 µM
CAKI-1
  IC50: > 4 µM
SAOS-2
  IC50: > 4 µM
MIA PaCa-2
  IC50: 2.36 µM
NCI-H441
  IC50: 1.55 µM
HCC70
  IC50: > 4 µM
CHP-212
  IC50: 0.594 µM
RVH-421
  IC50: > 4 µM
NB7
  IC50: 1.99 µM
NCI-H810
  IC50: > 4 µM
HuCCT-1
  IC50: > 4 µM
MC-IXC
  IC50: > 4 µM
AN3-CA
  IC50: > 4 µM
A204
  IC50: 0.634 µM
CAMA-1
  IC50: 0.834 µM
PFSK-1
  IC50: > 4 µM
CAL-85-1
  IC50: > 4 µM
OAW-28
  IC50: > 4 µM
NCI-H2122
  IC50: > 4 µM
OVCAR-8
  IC50: > 4 µM
KP-N-YN
  IC50: > 4 µM

## CCCS(=O)(=O)Nc1ccc(F)c(C(=O)c2c[nH]c3ncc(Cl)cc23)c1F [PLX-4720]
MG-63
  IC50: > 10 µM
Daoy
  IC50: > 10 µM
PC-3
  IC50: > 10 µM
S-117
  IC50: > 10 µM
SK-MES-1
  IC50: > 10 µM
SK-LU-1
  IC50: > 10 µM
UACC-62
  IC50: > 10 µM
RPMI-2650
  IC50: > 10 µM
KYSE-70 cell line
  IC50: > 10 µM
COLO-741
  IC50: 8.02 µM
ASPC1
  IC50: > 10 µM
P12-Ichikawa
  IC50: > 10 µM
TCC-SUP
  IC50: > 10 µM
HEC-1
  IC50: > 10 µM
OVCAR-3
  IC50: > 10 µM
MDA-MB-231
  IC50: > 10 µM
MCF7
  IC50: > 10 µM
DK-MG
  IC50: > 10 µM
SW756
  IC50: > 10 µM
C32
  IC50: 0.151 µM
UO-31
  IC50: > 10 µM
LCLC-103H cell line
  IC50: > 10 µM
MDA-MB-157
  IC50: > 10 µM
G-402
  IC50: > 10 µM
RT-112
  IC50: > 10 µM
M14
  IC50: 0.218 µM
MDA-MB-175-VII
  IC50: > 10 µM
SW1573
  IC50: > 10 µM
NCI-H522
  IC50: > 10 µM
HCC38
  IC50: > 10 µM
KYSE-520 cell line
  IC50: > 10 µM
CAKI-1
  IC50: > 10 µM
SAOS-2
  IC50: > 10 µM
MIA PaCa-2
  IC50: > 10 µM
NCI-H441
  IC50: > 10 µM
HCC70
  IC50: > 10 µM
MKN-45
  IC50: > 10 µM
CHP-212
  IC50: > 10 µM
RVH-421
  IC50: 0.868 µM
NB7
  IC50: 6.21 µM
NCI-H810
  IC50: > 10 µM
HuCCT-1
  IC50: > 10 µM
MC-IXC
  IC50: > 10 µM
AN3-CA
  IC50: > 10 µM
A204
  IC50: > 10 µM
CAMA-1
  IC50: > 10 µM
PFSK-1
  IC50: > 10 µM
CAL-85-1
  IC50: > 10 µM
OAW-28
  IC50: > 10 µM
NCI-H2122
  IC50: > 10 µM
OVCAR-8
  IC50: > 10 µM
KP-N-YN
  IC50: > 10 µM
